Source: paper PMC10794137, “A new antibiotic traps lipopolysaccharide in its intermembrane transporter” (Nature, 2024)

Columns and labels:
[1] = target: His-tagged LptB2FG (ablLptB2FG) in the presence of LPS (Acinetobacter baylyi, UniProt Q6FFD6+Q6FFD7); experiment: biochemical; assay type: binding
Experimental: The binding of radioligand [^3H]-RO7223280 to ablLptB2FG and ablLptB2FGC was measured by bead-based SPA. All steps were performed in SEC buffer (20 mM Tris pH 7.5, 300 mM NaCl, 5% glycerol, 0.5 mM TCEP, 0.05% DDM ± 10 µM E.coli J5 LPS(Rc) […] (Enzo Life Sciences)) and at 4 °C unless otherwise indicated. Purified protein was first incubated with Copper PVT HIS-tag beads (Perkin Elmer) for 1.5 h under gentle rotation. Twelve radioligand concentrations were added to the PVT–protein mix and incubated for another 30 min. […] The SPA plates were sealed (TopSeal, Perkin Elmer) and stored at 4 °C overnight. Before the measurement, plates were mixed on a shaker for 20 min, 750 rpm at room temperature and the seal was thoroughly wiped with antistatic spray to reduce electrostatic events. Scintillation data were recorded with a Topcount NXT C384, in the form of three independent replicates each consisting of three technical triplicates. Specific binding was calculated by subtracting non-specific binding raw counts from total binding raw counts. The dissociation constant Kd and standard deviation of the three independent replicates are reported and were calculated by the GraphPad Prism ‘One site – specific binding’ tool.
Displacement values were normalized by including nine wells containing […] (defined as 100% competition) and nine wells containing 8 uM radioligand only (defined as 0% competition). […] The Hill coefficient was used as a quality control metric (theoretically, nH = 1 for a 1:1 competitive inhibitor) and determined with the ‘[Inhibitor] vs. response -- Variable slope (four parameters)’ tool.

LptB2FGΔTM-LptC = experiment: LPS release assay, LptB2FG-ΔTM-C; assay type: biochemical, Acinetobacter baylyi; conditions: complex lacking LptC TM helix
Experimental: (§1) Proteoliposomes were prepared as described previously. Aqueous E. coli polar lipid extract (Avanti Polar Lipids) (30 mg ml^−1) and aqueous LPS from E. coli EH100 (Ra mutant; Sigma) (2 mg ml^−1) were sonicated briefly for homogenization. For experiments testing the effect of LPS structure, we used LPS isolated from either GKM374 (BL21DE3 eptA::catR arnA::kanR eptC::gentR) or TXM418 (BL21DE3 eptA::catR arnA::FRT eptB::gentR lpxM::kanR) as described previously. A mixture of 20 mM Tris-HCl (pH 8.0), 150 mM NaCl, 7.5 mg ml^−1 of E. coli polar lipids, 0.5 mg ml^−1 of LPS and 0.25% DDM was prepared and kept on ice for 10 min. Purified LptB2FGC or LptB2FG was added to a final concentration of 0.86 μM and the mixture was left on ice for 20 min. The mixture was diluted 100-fold with cold 20 mM Tris-HCl (pH 8.0) and 150 mM NaCl and kept on ice for 20 min. The proteoliposomes were pelleted (300,000g, 2 h, 4 °C), resuspended in 20 mM Tris-HCl (pH 8.0) and 150 mM NaCl, diluted 100× and centrifuged (300,000g, 2 h, 4 °C). The pellets were resuspended in a mixture of 20 mM Tris-HCl (pH 8.0), 150 mM NaCl and 10% glycerol (250 μl per 100 μl of the original predilution solution), homogenized by sonication, flash frozen and stored at −80 °C until use.
LptC(ΔTM) was purified largely as previously described. Briefly, Bl21 (λDE3) E. coli cells containing pET22/42-LptC(ΔTM)-His7 were grown to an OD600 of approximately 0.6 at 37 °C in LB media containing 50 μg ml^−1 of carbenicillin. Cells were then induced with 50 μM IPTG; allowed to grow for 2 h; harvested and resuspended in lysis buffer (50 mM Tris pH 7.4, 300 mM NaCl, 0.1 mM EDTA). Lysozyme, DNaseI and PMSF were added to final concentrations of 100 µg ml^−1, 50 µg ml^−1 and 1 mM, respectively. Cells were homogenized and subjected to passage through an EmulsiFlex-C3 high-pressure cell disruptor three times. The cell lysate was centrifuged (10,000g, 10 min) and the supernatant was further centrifuged (100,000g, 1 h). […]
The amounts of release of LPS from proteoliposomes to LptA were measured as previously described. […]

LptB2FG = experiment: ATPase assay (molybdate), LptB2FG proteoliposomes; assay type: biochemical, Acinetobacter baylyi; conditions: LptB2FG liposomes, in presence of LPS
Experimental: as §1
ATPase assays were done using a modified molybdate method, as previously reported, with slight modifications. Assays used 30% proteoliposomes (by volume) in a mixture containing 50 mM Tris-HCl (pH 8.0), 500 mM NaCl, 10% glycerol and 2 mM MgCl2. Proteoliposome-containing reaction mixture was incubated with drug at room temperature for 10 min, as applicable. Reactions were initiated by the addition of ATP to a final concentration of 5 mM and run at 30 °C. Aliquots (5 µl) were taken at 0, 15, 30 and 45 min. […] The amounts of Pi were determined using a colorimetric method and potassium phosphate was used as a standard. […] The absorbance at 850 nm was measured using a Spectramax Plus 384 (Molecular Devices) after 20 min. Error bars indicate the standard deviations of the average rates measured over three biological replicates.

LptB2FGC = experiment: ATPase assay (molybdate), LptB2FGC proteoliposomes; assay type: biochemical, Acinetobacter baylyi; conditions: for Effect on ATPase activity: LptB2FGC liposomes, in presence of LPS
Experimental: as §1
ATPase assays were done using a modified molybdate method, as previously reported, with slight modifications. Assays used 30% proteoliposomes (by volume) in a mixture containing 50 mM Tris-HCl (pH 8.0), 500 mM NaCl, 10% glycerol and 2 mM MgCl2. Proteoliposome-containing reaction mixture was incubated with drug at room temperature for 10 min, as applicable. Reactions were initiated by the addition of ATP to a final concentration of 5 mM and run at 30 °C. Aliquots (5 µl) were taken at 0, 15, 30 and 45 min. Reactions were quenched with an equal volume of 12% SDS. The amounts of Pi were determined using a colorimetric method and potassium phosphate was used as a standard. Reagents were obtained from Sigma-Aldrich. After the addition of SDS, a mixture containing 10 µl of 30 mg ml^−1 of ascorbic acid, 0.5 N HCl, 5 mg ml^−1 of ammonium molybdate and 6% SDS was added. The samples were incubated at room temperature for 7 min and 15 µl of an aqueous solution containing 20 mg ml^−1 of sodium citrate tribasic dihydrate, 2 mg ml^−^1 of sodium arsenite and 2% (vol/vol) acetic acid was added. The absorbance at 850 nm was measured using a Spectramax Plus 384 (Molecular Devices) after 20 min. Error bars indicate the standard deviations of the average rates measured over three biological replicates.

LptB2FG-ΔTM-C = experiment: ATPase assay (molybdate), LptB2FG-ΔTM-C proteoliposomes; assay type: biochemical, Acinetobacter baylyi; conditions: LptB2FG-ΔTM-C liposomes, in presence of LPS

His-tagged LptB2FG (ablLptB2FG) in the presence of LPS, sequence (Q6FFD6 entry or part of it): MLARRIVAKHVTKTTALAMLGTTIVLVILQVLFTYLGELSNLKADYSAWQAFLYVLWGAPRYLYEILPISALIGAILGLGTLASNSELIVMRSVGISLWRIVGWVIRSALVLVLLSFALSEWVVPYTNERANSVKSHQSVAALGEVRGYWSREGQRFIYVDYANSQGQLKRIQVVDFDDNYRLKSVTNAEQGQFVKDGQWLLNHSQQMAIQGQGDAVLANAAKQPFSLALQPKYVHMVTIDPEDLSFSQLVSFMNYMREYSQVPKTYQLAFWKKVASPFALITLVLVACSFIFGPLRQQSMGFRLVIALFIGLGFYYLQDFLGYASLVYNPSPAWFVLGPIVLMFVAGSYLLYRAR
His-tagged LptB2FG (ablLptB2FG) in the presence of LPS, sequence (Q6FC66 entry or part of it, further chain): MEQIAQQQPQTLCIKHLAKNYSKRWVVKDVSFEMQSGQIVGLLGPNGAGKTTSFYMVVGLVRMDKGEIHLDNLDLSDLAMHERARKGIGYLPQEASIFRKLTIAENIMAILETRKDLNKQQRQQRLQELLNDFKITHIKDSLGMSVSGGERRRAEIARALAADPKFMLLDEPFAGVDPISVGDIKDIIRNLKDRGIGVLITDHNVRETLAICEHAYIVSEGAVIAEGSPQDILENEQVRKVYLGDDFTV
His-tagged LptB2FG (ablLptB2FG) in the presence of LPS, sequence (Q6FFD7 entry or part of it): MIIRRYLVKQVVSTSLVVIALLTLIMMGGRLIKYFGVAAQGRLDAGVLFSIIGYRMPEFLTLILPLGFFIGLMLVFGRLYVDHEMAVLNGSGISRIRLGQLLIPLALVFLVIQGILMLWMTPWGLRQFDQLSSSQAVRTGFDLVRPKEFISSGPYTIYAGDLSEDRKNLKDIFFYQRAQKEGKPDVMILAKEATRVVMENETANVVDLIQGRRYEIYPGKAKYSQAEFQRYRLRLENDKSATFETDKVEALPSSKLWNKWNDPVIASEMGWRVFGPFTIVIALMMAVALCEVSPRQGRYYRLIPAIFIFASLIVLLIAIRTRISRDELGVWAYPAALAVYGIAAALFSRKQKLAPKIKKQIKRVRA

| SMILES | Ki [1] [nM] | Inhibition of LPS transport to LptA (LptB2FGΔTM-LptC) | Effect on ATPase activity (LptB2FG) | Effect on ATPase activity with ΔLpxM LPS (LptB2FGC; LptB2FGC liposomes with LPS isolated from a ΔLpxM strain) | Effect on ATPase activity (LptB2FGC) | Effect on ATPase activity (LptB2FG-ΔTM-C) |
| --- | --- | --- | --- | --- | --- | --- |
| CN1C(=O)[C@H](CCCCN)NC(=O)[C@H](CCCN)NCc2cccnc2Sc2c(Cl)ccc(-c3ccc(N)nc3)c2CNC(=O)[C@@H]1Cc1c[nH]c2ccccc12 [Compound 1] | 35 | inhibited | increases the ATPase activity | resistant | increases the ATPase activity | increases the ATPase activity |
| CN1C(=O)[C@H](CCCCN)NC(=O)[C@H](CCCN)NCc2cccnc2Sc2cccc(-c3ccc(C(=O)O)cc3)c2CNC(=O)[C@@H]1Cc1c[nH]c2ccccc12 [Compound 2, Zosurabalpin] | 35 | inhibited | increases the ATPase activity |  | increases the ATPase activity | increases the ATPase activity |
| CN1C(=O)[C@H](CCCCN)NC(=O)[C@H](CCCN)NCc2cccnc2Sc2c(Cl)ccc(Cl)c2CNC(=O)[C@@H]1Cc1c[nH]c2ccccc12 [Compound 3] | 56 | inhibited | increases the ATPase activity |  | does not affect the ATPase | increases the ATPase activity |
